Data reported in paper PMC7770833, “Design, Synthesis, and Biological Evaluation of a Series of Oxazolone Carboxamides as a Novel Class of Acid Ceramidase Inhibitors” (Journal of Medicinal Chemistry, 2020).

Key:
[1] = In vitro microsomal stability study, human liver microsomes; type: in vitro ADME
Method: Freshly prepared 10 mM CH3CN stock solution of the test compound was pre-incubated at 37 °C for 15 min with mouse/human liver microsomes added 0.1 M Tris-HCl buffer (pH 7.4). The final concentration was 4.6 μM. After pre-incubation, the cofactors (NADPH, G6P, G6PDH, and MgCl2 pre-dissolved in 0.1 M Tris-HCl) were added to the incubation mixture and the incubation was continued at 37 °C for 1 h. At each time point (0, 5, 15, 30, and 60 min), 30 μL of the incubation mixture was diluted with 200 μL of cold CH3CN spiked with 200 nM of the internal standard, followed by centrifugation at 3300g for 15 min. The supernatant was further diluted with H2O (1:1) for analysis. The concentration of the test compound was quantified by LC/MS–MS on a Waters Acquity UPLC/MS TQD system consisting of TQD MS equipped with an ESI interface. The analyses were run on an Acquity UPLC BEH C18 (50 × 2.1 mm ID, particle size 1.7 μm) with a VanGuard BEH C18 pre-column (5 × 2.1 mm ID, particle size 1.7 μm) at 40 °C. For each compound, the appropriate mobile phase was chosen. ESI was applied in positive mode. The percentage of the test compound remaining at each time point relative to t = 0 was calculated. The t1/2 were determined by a one-phase decay equation using a nonlinear regression of the compound concentration versus time. […]

[2] = In vivo PK study in C57BL/6 mice; design: species or system mouse
Method: C57 B6/J male mice, 8 weeks old (22–24 g), were used (Charles River, Calco). All procedures were performed in accordance with the Ethical Guidelines of European Communities Council (Directive 2010/63/EU of 22 September 2010) and accepted by the Italian Ministry of Health. All efforts were made to minimize animal suffering and to use the minimal number of animals required to produce reliable results, according to the “3Rs rules”. Animals were group-housed in ventilated cages and had free access to food and water. They were maintained under a 12 h light/dark cycle (lights on at 8:00 am) at a controlled temperature (21 ± 1 °C) and relative humidity (55 ± 10%). 32b was administrated intravenously (i.v.) at 3 mg/kg/5 mL, vehicle: PEG400/Tween 80/saline solution (10/10/80% in volume, respectively) via tail vein injection and via oral administration (p.o.) at 10 mg/kg/10 mL, vehicle: PEG400/Tween 80/saline solution (10/10/80% in volume, respectively) by an oral gavage. Sample collection. Samples were collected at 5 min, 15 min, 30 min, 1 h, 2 h, and 4 h (i.v. administration) and at 15 min, 30 min, 1 h, 2 h, 4 h, and 6 h (p.o. administration). N = 3 animals per dose time point were treated. Plasma samples were centrifuged at 21,100g for 15 min at 4 °C. An aliquot of each sample was extracted (1:3) with cold CH3CN containing 200 nM of an appropriate internal standard being a close analogue of compound 32b. A calibration curve was prepared in blank mouse plasma over a 1 nM–10 μM range. Three quality controls were prepared by spiking compound 32b in the blank mouse plasma to 20, 200, and 2000 nM as final concentrations. The calibrators and quality controls were extracted (1:3) with the same extraction solution as the plasma samples. The plasma samples, the calibrators, and quality controls were centrifuged at 3270 × g for 15 min at 4 °C. The supernatants were further diluted (1:1) with H2O and analyzed by LC/MS–MS on a Waters Acquity UPLC/MS TQD system consisting of TQD) MS equipped with an ESI interface and a PDA detector. ESI was applied in positive mode. Compound-dependent parameters such as MRM transitions and collision energy were developed for compound 32b and the internal standard. The analyses were run on an Acquity UPLC BEH C18 (50 × 2.1 mm ID, particle size 1.7 μm) with a VanGuard BEH C18 pre-column (5 × 2.1 mm ID, particle size 1.7 μm) at 40 °C. For plasma samples, the mobile phase was H2O + 0.1% HCOOH (A) and CH3CN + 0.1% HCOOH (B) at a flow rate = 0.5 mL/min. A linear gradient was applied starting at 20% B with an initial hold for 0.2 min, then 20–100% B in 2 min. All samples (plasma samples, calibrators, and quality controls) were quantified by a MRM peak area response factor in order to determine the levels of compound 32b in the plasma. The concentrations versus time were plotted and the profiles were fitted using PK Solutions Excel Application (Summit Research Service, USA) in order to determine the PK parameters.

Structure (SMILES): CCCCCNC(=O)n1cc(-c2ccc(F)cc2C2CCN(C)CC2)oc1=O [Compound 32b, 5-[4-Fluoro-2-(1-methyl-4-piperidyl)phenyl]-2-oxo-N-pentyl-oxazole-3-carboxamide]
- h-liver microsomes % compound remaining at 1 h ([1]; 1 h): 80%
- half-life at 4.6 μM ([1]; pH 7.4, read-out: h-liver microsomal stability t1/2): > 1 h
- Vdss (mL/kg) ([2]; 10 mg/kg, p.o.): 32 877 mL/kg
- AUC at 4 h ([2]; male, mouse, iv, 3 mg/kg, plasma): 533 ng·h/mL
- clearance at 4 h ([2]; male, mouse, plasma, iv, 3 mg/kg): 72 mL/min/kg
- Vd at 4 h ([2]; male, mouse, plasma, iv, 3 mg/kg, i.v., read-out: Vdss (converted)): 12.4 L/kg
- AUC at 4 h ([2]; male, mouse, po, 10 mg/kg, plasma): 709 ng·h/mL
